US11827622B2, “Crystalline forms of imidacloprid and methods of use thereof” (New York University, priority 2020, dated 2023)

How the values were obtained:
[1] = tested on: Anopheles quadrimaculatus; assay: Lethality (knockdown time) on contact with IMI polymorph microcrystals in petri dish, Anopheles mosquitoes; assay type: in vivo; details: Anopheles females; median knockdown time; 0.100 mg microcrystals per 100 mm dish
Description: (§1) Lethality measurements for IMI polymorphs. Microcrystals of IMI Forms I, IV, VI, and IX were prepared by grinding respective single crystals using a mortar and pestle. Their compositions were then analyzed by powder X-ray diffraction (PXRD). Lethality measurements were performed in triplicate for each solid-state form, each accompanied by three controls (no insecticide). 2.0 mg of microcrystals was added to a 35 mm diameter polystyrene petri dish, which was subsequently shaken to disperse the microcrystals throughout the petri dish. Microcrystals was added to a polystyrene petri dish (2.000 mg microcrystals per 35 mm diameter dish for fruit flies; 0.100 mg microcrystals per 100 mm diameter dish for mosquitoes), which was subsequently shaken to disperse the microcrystals throughout the petri dish. Adult mosquitoes (Ae. aegypti, A. quadrimaculatus or C. quinquefasciatus) or fruit flies (D. melanogaster) were sedated with carbon dioxide and 30 female mosquitoes or 20 flies were transferred to each petri dish. The top of the dish was then placed over the bottom and the motion of the insects was recorded with a video camera (Sony HDR-CX455). The knockdown time was measured for each individual insect, with knockdown associated with an insect laying on the bottom surface of the petri dish in a supine position without moving from its original position after 10 seconds.
(§2) Statistical analyses. Logistic regression of knockdown-time curves was preformed to obtain the median knockdown time (KT50) of the test flies and mosquitoes, the 95% confidence intervals (CI), slopes, and standard errors (SE) using Qcal software.

Culex quinquefasciatus = assay: Lethality (knockdown time) on contact with IMI polymorph microcrystals in petri dish, Culex mosquitoes; assay type: in vivo; details: Culex females; median knockdown time; 0.100 mg microcrystals per 100 mm dish
Description: as §1, §2

Drosophila melanogaster = assay: Lethality (knockdown time) on contact with IMI polymorph microcrystals in petri dish, fruit flies; assay type: in vivo; details: for KT50 (95% CI): median knockdown time, 2.0 mg microcrystals per 35 mm dish; for times faster-acting than Form I: ratio of KT50 values
Description: as §1, §2
IMI Forms IX, VI, IV were selected for lethality comparison with the commercial Form I, collectively representing a quartet spanning a wide range of free energies. […] A video camera was used to record the knockdown times—a proxy for lethality—for each insect. KT50 values, the times required for 50% of the insects to become immobile and supine, were calculated by logistic regression of knockdown-time curves (FIGS. 34A-34P). Shorter KT50 values correspond to greater lethality. Accordingly, Forms IX, VI and IV were 5.7, 2.5 and 1.8 times faster-acting than Form I.

Aedes aegypti = assay: Lethality (knockdown time) on contact with IMI polymorph microcrystals in petri dish, Aedes mosquitoes; assay type: in vivo; details: for KT50 (95% CI): Aedes females, median knockdown time, 0.100 mg microcrystals per 100 mm dish
Description: as §1, §2

[2] = assay type: physicochemical
Description: IMI polymorphs exposed in open air at ambient temperature are typically stable for at least 6 months. Although the polymorphic forms were distinguishable by visual inspection (from their interference colors between crossed polarizers and morphologies), their identity and any phase transformations were always corroborated by micro-Raman spectroscopy and PXRD. Form IX held at 95° C. on a microscope hot stage in air transformed to Form V in 3 min, which then converted to Form I at 110° C. in 2 min. Form I also can nucleate directly on the surface of Form IX at T>70° C. Form IX crystals confined between glass slides nucleate Form I, V or VI within Form IX at 80° C. within 1 min. […] Form VI transforms to III when they were in contact at 110° C.

Drosophila = assay: Lethality measurement of IMI vapor, Drosophila; assay type: in vivo, Drosophila melanogaster
Description: (§3) Crystalline insecticide was added to an opened glass vial tapped to the bottom of a petri dish, which was subsequently covered with porous polyester substrate. Female Aedes and Drosophila were sedated with carbon dioxide and were transferred onto the porous substrate. An inverted petri dish was then placed over the polyester substrate to seal the assembly. The motion of the Aedes and Drosophila was recorded with a video camera. An opened glass vial containing 2.0 mg IMI microcrystals was tapped to the bottom of the petri dish (FIGS. 35A-35E).

Aedes = assay: Lethality measurement of IMI vapor, Aedes; assay type: in vivo, Aedes aegypti
Description: as §3

[3] = 2.0 mg IMI microcrystals in opened glass vial under porous polyester substrate

| SMILES | KT50 (95% CI) [1] | KT50 (95% CI) (Culex quinquefasciatus) | KT50 (95% CI) (Drosophila melanogaster) | KT50 (95% CI) (Aedes aegypti) | times faster-acting than Form I (Drosophila melanogaster) [times] | also measured |
| --- | --- | --- | --- | --- | --- | --- |
| O=[N+]([O-])NC1=NCCN1Cc1ccc(Cl)nc1 [Form I, 1-[(6-chloro-3-pyridinyl)-methyl]-N-nitro-2-imidazolidinimine, reference compound] | 524 (515-534) min | 573 (568-581) min | 562 (536-589) min | 643 (621-664) min |  | thermodynamic stability [2]: the most thermodynamically stable crystal form |
| O=[N+]([O-])N=C1NCCN1Cc1ccc(Cl)nc1 [Form V, 1-[(6-chloro-3-pyridinyl)-methyl]-N-nitro-2-imidazolidinimine] |  |  |  |  |  | time of conversion to Form I ([2]; at 110° C.): 2 min |
| O=[N+]([O-])NC1=NCCN1Cc1ccc(Cl)nc1 [Form IX, 1-[(6-chloro-3-pyridinyl)-methyl]-N-nitro-2-imidazolidinimine] | 84 (82-86) min | 89 (88-91) min | 99 (93-105) min | 70 (68-71) min | 5.7 | kinetic stability against transformation to other polymorphs [2]: kinetically stable against transformations to other polymorphs; time to nucleation of Form I, V or VI within the form ([2]; crystals confined between glass slides, 80° C.): ≤ 1 min; time of transformation to Form V ([2]; held at 95° C. on microscope hot stage in air): 3 min |
| O=[N+]([O-])N=C1NCCN1Cc1ccc(Cl)nc1 [IMI, 1-[(6-chloro-3-pyridinyl)-methyl]-N-nitro-2-imidazolidinimine] |  |  |  |  |  | effect of exposure to IMI vapor (Drosophila; [3]): remained viable with no nerve firing symptoms; effect of exposure to IMI vapor (Drosophila; after 12 hours): remained viable with no nerve firing symptoms; effect of exposure to IMI vapor (Aedes; [3]): remained viable with no nerve firing symptoms; effect of exposure to IMI vapor (Aedes; after 12 hours): remained viable with no nerve firing symptoms; time within which all insects were knocked down (Drosophila melanogaster; direct contact with the same amount of IMI microcrystals in petri dishes): ≤ 10 h; time within which all insects were knocked down (Aedes aegypti; Aedes, direct contact with the same amount of IMI microcrystals in petri dishes): ≤ 10 h |
| O=[N+]([O-])N=C1NCCN1Cc1ccc(Cl)nc1 [Form IV, 1-[(6-chloro-3-pyridinyl)-methyl]-N-nitro-2-imidazolidinimine] | 220 (216-224) min | 311 (309-313) min | 321 (302-343) min | 335 (329-342) min | 1.8 |  |
| O=[N+]([O-])N=C1NCCN1Cc1ccc(Cl)nc1 [Form VI, 1-[(6-chloro-3-pyridinyl)-methyl]-N-nitro-2-imidazolidinimine] | 143 (141-144) min | 192 (189-195) min | 223 (210-238) min | 152 (147-157) min | 2.5 |  |
